# “And” between values parts separate entries of the source, which are not always exact repeats. Identical values can stand only once. Like-named read-outs stand apart in the source and are kept apart here.
# How the values were obtained:
# Mino cells [1] = assay: Proteomic reactivity of model alkyne probes; assay type: cell-based; settings: compared with 2b
# Mino cells [2] = assay: Competitive pull-down proteomics; assay type: cell-based; settings: 1 μM, fold-enrichment>4 and p-value<0.05
# BTK [3] = biological target: BTK (Mus musculus (Mouse), UniProt P35991); assay: BTK engagement in treated mice spleens; assay type: in vivo
# Chain of BTK (Mus musculus (Mouse), UniProt P35991) (P35991 whole entry): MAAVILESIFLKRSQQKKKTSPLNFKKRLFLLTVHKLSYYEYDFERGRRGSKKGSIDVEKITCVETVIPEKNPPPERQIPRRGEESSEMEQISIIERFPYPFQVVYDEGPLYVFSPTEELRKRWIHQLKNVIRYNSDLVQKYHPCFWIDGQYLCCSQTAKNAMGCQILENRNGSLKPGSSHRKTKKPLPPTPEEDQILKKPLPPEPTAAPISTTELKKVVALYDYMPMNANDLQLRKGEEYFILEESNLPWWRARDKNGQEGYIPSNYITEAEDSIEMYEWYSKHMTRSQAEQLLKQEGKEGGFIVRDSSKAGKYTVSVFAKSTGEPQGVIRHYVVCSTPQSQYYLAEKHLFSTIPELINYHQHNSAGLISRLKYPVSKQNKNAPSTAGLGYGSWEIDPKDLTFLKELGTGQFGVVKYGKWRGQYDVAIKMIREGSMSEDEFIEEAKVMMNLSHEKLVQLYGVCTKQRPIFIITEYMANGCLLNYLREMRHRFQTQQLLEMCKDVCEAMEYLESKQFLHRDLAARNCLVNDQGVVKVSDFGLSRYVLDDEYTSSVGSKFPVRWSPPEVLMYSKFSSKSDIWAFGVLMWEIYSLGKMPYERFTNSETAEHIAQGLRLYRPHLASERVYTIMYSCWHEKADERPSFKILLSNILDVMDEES
# Experimental: Lysates were diluted to 2 mg/ml, […] per sample, and incubated for 1 h in room temperature with […] probe 4 to label BTK. Lysates were then clicked to TAMRA-azide and imaged using ChemiDoc MP (546 nm) as described in the In-gel fluorescence protocol.
# [4] = tested on: TCL1 adoptive transfer mouse model for CLL; assay: TCL1 adoptive transfer mouse model for CLL; assay type: in vivo; settings: after two weeks of treatment
# BTK [5] = biological target: T1, BTK (Homo sapiens (Human), UniProt Q06187); assay: In vitro kinase activity assay; assay type: biochemical
# T1 sequence (Q06187 whole entry, looked up): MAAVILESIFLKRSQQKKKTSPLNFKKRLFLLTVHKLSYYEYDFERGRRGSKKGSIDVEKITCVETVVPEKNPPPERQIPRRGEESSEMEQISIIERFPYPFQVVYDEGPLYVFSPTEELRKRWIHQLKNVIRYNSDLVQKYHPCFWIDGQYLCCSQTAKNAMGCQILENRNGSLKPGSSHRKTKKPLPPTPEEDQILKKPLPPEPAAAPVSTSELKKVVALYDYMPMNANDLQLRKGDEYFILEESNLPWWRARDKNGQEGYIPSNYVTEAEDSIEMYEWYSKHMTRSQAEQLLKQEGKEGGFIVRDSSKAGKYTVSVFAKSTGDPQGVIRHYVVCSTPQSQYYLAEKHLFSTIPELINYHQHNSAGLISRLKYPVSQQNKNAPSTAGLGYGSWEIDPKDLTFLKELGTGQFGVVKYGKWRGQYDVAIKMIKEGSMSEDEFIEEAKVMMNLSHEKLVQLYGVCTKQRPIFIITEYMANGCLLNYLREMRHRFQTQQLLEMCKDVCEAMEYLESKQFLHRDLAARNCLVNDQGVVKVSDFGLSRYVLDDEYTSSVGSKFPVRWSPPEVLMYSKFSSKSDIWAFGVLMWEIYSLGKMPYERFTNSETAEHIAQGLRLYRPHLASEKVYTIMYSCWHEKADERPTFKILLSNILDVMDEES
# BTK C481S mutant = BTK C481S mutant (Homo sapiens (Human), UniProt Q06187, C481S); assay: In vitro kinase activity assay with BTK C481S mutant; assay type: biochemical; settings: for C481S/BTK: ratio of off-target/BTK IC50
# Chain of BTK C481S mutant (Q06187 whole entry C481S, looked up): as the sequence (Q06187 whole entry, looked up) above, with C481S counted along it
# EGFR = EGFR (Homo sapiens (Human), UniProt P00533); assay: In vitro kinase activity assay with EGFR; assay type: biochemical; settings: for EGFR/BTK: ratio of off-target/BTK IC50
# Chain of EGFR (P00533 25-1210): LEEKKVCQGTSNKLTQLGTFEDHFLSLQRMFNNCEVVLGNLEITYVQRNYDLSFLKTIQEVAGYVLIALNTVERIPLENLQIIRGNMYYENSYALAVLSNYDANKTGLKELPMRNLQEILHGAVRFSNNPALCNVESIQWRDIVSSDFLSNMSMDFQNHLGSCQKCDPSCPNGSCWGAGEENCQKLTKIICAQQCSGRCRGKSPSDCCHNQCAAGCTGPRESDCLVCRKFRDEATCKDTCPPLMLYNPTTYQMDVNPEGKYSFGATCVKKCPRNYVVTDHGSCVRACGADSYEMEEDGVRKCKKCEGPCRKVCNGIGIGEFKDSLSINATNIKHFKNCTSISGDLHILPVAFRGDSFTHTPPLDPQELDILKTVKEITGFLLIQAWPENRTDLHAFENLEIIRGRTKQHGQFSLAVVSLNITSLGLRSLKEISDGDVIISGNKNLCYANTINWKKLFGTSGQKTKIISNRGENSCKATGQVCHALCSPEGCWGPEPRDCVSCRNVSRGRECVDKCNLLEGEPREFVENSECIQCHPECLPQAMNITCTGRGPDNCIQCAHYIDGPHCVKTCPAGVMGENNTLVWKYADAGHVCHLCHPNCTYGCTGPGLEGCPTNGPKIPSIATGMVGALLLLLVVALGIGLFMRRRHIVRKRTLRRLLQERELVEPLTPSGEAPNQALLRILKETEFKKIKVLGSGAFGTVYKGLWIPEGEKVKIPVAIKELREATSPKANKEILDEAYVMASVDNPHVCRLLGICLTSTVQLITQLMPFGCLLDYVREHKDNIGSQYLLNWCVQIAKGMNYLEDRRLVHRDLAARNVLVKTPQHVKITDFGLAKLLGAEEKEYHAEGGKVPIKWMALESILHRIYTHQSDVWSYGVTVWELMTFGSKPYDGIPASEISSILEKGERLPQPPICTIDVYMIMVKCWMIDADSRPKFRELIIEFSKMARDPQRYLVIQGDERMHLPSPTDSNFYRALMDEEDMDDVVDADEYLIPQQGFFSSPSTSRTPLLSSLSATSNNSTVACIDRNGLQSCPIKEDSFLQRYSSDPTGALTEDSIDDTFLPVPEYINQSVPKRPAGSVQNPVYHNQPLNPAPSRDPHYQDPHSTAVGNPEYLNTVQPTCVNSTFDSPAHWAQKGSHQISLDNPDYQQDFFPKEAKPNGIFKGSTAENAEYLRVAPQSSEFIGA
# BTK [6] = biological target: T1, BTK; assay: BTK activity (autophosphorylation) in Mino cells; assay type: cell-based; settings: anti-IgM activation, read-out: IC50 of BTK autophosphorylation inhibition
# Source text: The cell pellets were subjected to immunoblotting and performed Western blots for p-BTK, BTK and β-actin.
# Cell pellets were washed with ice-cold PBS and lysed using RIPA-buffer (Sigma, R0278). […] EZ-ECL Kit (Biological Industries, 20-500-1000) was used to detect HRP-activity.
# [7] = Metabolic stability with human liver microsomes; settings: five-minute incubation
# [8] = GSH reactivity (consumption) assay; assay type: physicochemical; settings: for covalent bond formation with GSH: assay conditions or up to 37° C. for 24 h; for GSH reactivity relative to chloroacetamide (1a): model compounds
# BTK kinase domain = BTK kinase domain (Homo sapiens (Human), UniProt Q06187); assay: In-vitro labeling of recombinant BTK, intact protein LC/MS; assay type: binding; settings: 2 μM BTK, 2 μM compound
# Chain of BTK kinase domain (Q06187 402-655): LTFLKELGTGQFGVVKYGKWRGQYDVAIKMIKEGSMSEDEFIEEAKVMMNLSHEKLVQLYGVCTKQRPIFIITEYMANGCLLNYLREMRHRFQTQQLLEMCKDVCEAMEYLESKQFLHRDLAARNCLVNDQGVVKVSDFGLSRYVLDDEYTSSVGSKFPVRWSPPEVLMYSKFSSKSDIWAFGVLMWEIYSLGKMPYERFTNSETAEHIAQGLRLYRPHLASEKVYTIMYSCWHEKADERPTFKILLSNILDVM
# [9] = 0.5 nM BTK, 5 μM ATP, read-out: BTK (IC50 μM)
# [10] = BTK C481S mutant, read-out: C481S (IC50 μM)
smiles,measurement,setting,value
"C#Cc1ccc(NC(=O)COS(=O)(=O)NCc2ccccc2)cc1 [Compound 2a, 2-((4-ethynylphenyl)amino)-2-oxoethyl benzylsulfamate]",proteomic reactivity (proteins enriched),Mino cells [1],enriching more proteins
"CNS(=O)(=O)OCC(=O)N1CCC[C@@H](n2nc(-c3ccc(Oc4ccccc4)cc3)c3c(N)ncnc32)C1 [Compound 3c, (R)-2-(3-(4-amino-3-(4-phenoxyphenyl)-1H-pyrazolo[3,4-d]pyrimidin-1-yl)piperidin-1-yl)-2-oxoethyl methylsulfamate]",number of off-targets (competitive pull-down),Mino cells [2],6
same,BTK engagement in vivo (ibrutinib-alkyne probe labeling of spleen lysate),BTK [3],do not show probe labeling
same,spleen size,[4],visually smaller
same,IC50,BTK [5]; [9],0.00864 µM and 0.0086 µM
same,IC50,BTK [5]; read-out: IC50 against BTK,~0.01 µM
same,IC50,BTK C481S mutant,0.74 µM
same,fold potency lost against the C481S mutant,BTK C481S mutant,30-85 fold
same,C481S/BTK,BTK C481S mutant,85.6
same,IC50,EGFR,0.241 µM
same,EGFR/BTK,EGFR,27.9
same,IC50,BTK [6],3.6 nM
same,remained intact after incubation with human liver microsomes,[7],over 30%
"C#CCOS(=O)(=O)N1CCC[C@@H](n2nc(-c3ccc(Oc4ccccc4)cc3)c3c(N)ncnc32)C1 [Compound 3j, prop-2-yn-1-yl (R)-3-(4-amino-3-(4-phenoxyphenyl)-1H-pyrazolo[3,4-d]pyrimidin-1-yl)piperidine-1-sulfonate]",reaction with GSH,[8]; same conditions as Ibrutinib,did not undergo any reaction with GSH
"Nc1ncnc2c1c(-c1ccc(Oc3ccccc3)cc1)nn2[C@@H]1CCCN(C(=O)COS(=O)(=O)NCc2ccccc2)C1 [Compound 3d, (R)-2-(3-(4-amino-3-(4-phenoxyphenyl)-1H-pyrazolo[3,4-d]pyrimidin-1-yl)piperidin-1-yl)-2-oxoethyl benzylsulfamate]",number of off-targets (competitive pull-down),Mino cells [2],20
same,IC50,BTK [5]; [9],0.0242 µM and 0.024 µM
same,IC50,BTK [5]; read-out: IC50 against BTK,~0.01 µM
same,fold potency lost against the C481S mutant,BTK C481S mutant,30-85 fold
same,IC50,BTK C481S mutant; [10],1.28 µM
same,C481S/BTK,BTK C481S mutant,52.8
same,IC50,EGFR,0.533 µM
same,EGFR/BTK,EGFR,22.0
"C#Cc1ccc(NC(=O)CCl)cc1 [Compound 2c, 2-chloro-N-(4-ethynylphenyl)acetamide]",proteomic reactivity (proteins enriched),Mino cells [1],enriching more proteins
"O=C(CS(=O)(=O)c1ccccc1)NCc1ccccc1 [Compound 1j, N-benzyl-2-(phenylsulfonyl)acetamide]",covalent bond formation with GSH,[8],did not form a covalent bond with GSH
"Nc1ncnc2c1c(-c1ccc(Oc3ccccc3)cc1)nn2[C@@H]1CCCN(C(=O)CS(=O)(=O)c2ccccc2)C1 [Compound 3g, (R)-1-(3-(4-amino-3-(4-phenoxyphenyl)-1H-pyrazolo[3,4-d]pyrimidin-1-yl)piperidin-1-yl)-2-(phenylsulfonyl)ethan-1-one]",covalent labeling of BTK (LC/MS),BTK kinase domain,failed to react covalently with BTK
"Nc1ncnc2c1c(-c1ccc(Oc3ccccc3)cc1)nn2[C@@H]1CCCN(C(=O)COS(=O)(=O)Nc2ccccc2)C1 [Compound 3e, (R)-2-(3-(4-amino-3-(4-phenoxyphenyl)-1H-pyrazolo[3,4-d]pyrimidin-1-yl)piperidin-1-yl)-2-oxoethyl phenylsulfamate]",fold weaker IC50 than Ibrutinib,BTK [5],10 fold
same,IC50,BTK [5]; [9],0.0949 µM and 0.095 µM
same,IC50,BTK [5]; read-out: IC50 against BTK,0.1 µM
same,IC50,BTK C481S mutant; [10],0.275 µM
same,C481S/BTK,BTK C481S mutant,2.9
same,IC50,EGFR,1.96 µM
same,EGFR/BTK,EGFR,20.6
"O=C(COS(=O)(=O)NCc1ccccc1)NCc1ccccc1 [Compound 1e, 2-(benzylamino)-2-oxoethyl benzylsulfamate]",GSH reactivity relative to chloroacetamide (1a),[8],an order of magnitude less reactivity
"CS(=O)(=O)OCC(=O)N1CCC[C@@H](n2nc(-c3ccc(Oc4ccccc4)cc3)c3c(N)ncnc32)C1 [Compound 3b, (R)-2-(3-(4-amino-3-(4-phenoxyphenyl)-1H-pyrazolo[3,4-d]pyrimidin-1-yl)piperidin-1-yl)-2-oxoethyl methanesulfonate]",IC50,BTK [5]; [9],0.0464 µM and 0.046 µM
same,IC50,BTK [6],6 nM
"CNS(=O)(=O)OCC(=O)NCc1ccccc1 [Compound 1d, 2-(benzylamino)-2-oxoethyl methylsulfamate]",GSH reactivity relative to chloroacetamide (1a),[8],an order of magnitude less reactivity
"CS(=O)(=O)CC(=O)N1CCC[C@@H](n2nc(-c3ccc(Oc4ccccc4)cc3)c3c(N)ncnc32)C1 [Compound 3f, (R)-1-(3-(4-amino-3-(4-phenoxyphenyl)-1H-pyrazolo[3,4-d]pyrimidin-1-yl)piperidin-1-yl)-2-(methylsulfonyl)ethan-1-one]",covalent labeling of BTK (LC/MS),BTK kinase domain,failed to react covalently with BTK
"CS(=O)(=O)CC(=O)NCc1ccccc1 [Compound 1i, N-benzyl-2-(methylsulfonyl)acetamide]",covalent bond formation with GSH,[8],did not form a covalent bond with GSH

# — US20250304585A1, “SULFAMATE BASED COVALENT LIGAND-DIRECTED RELEASE (COLDR) COMPOUNDS” (priority 2022, published 2025)
